Measurements reported in PMC4570970 (ACS chemical biology, 2015).

Biological target: T1, 5-epi-aristolochene synthase (TEAS) (Nicotiana tabacum, UniProt Q40577)
T1 sequence (Q40577 1-548): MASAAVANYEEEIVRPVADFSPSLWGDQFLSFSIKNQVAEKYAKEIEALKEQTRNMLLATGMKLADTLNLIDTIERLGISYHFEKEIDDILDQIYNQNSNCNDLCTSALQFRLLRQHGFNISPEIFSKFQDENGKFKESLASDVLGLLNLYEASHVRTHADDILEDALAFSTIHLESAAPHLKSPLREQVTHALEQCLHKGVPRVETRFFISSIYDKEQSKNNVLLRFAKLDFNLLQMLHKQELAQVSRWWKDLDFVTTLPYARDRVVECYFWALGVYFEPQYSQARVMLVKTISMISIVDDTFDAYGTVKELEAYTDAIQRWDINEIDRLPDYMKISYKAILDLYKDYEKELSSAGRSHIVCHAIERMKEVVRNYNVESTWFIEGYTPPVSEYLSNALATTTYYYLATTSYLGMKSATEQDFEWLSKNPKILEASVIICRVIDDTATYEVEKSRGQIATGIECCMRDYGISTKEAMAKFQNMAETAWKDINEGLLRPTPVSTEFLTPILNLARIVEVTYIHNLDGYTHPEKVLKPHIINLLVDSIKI
Assay: crystal structure
Type: biochemical

C/C(=C\COP(=O)(O)OP(=O)(O)O)CC/C=C(\C)CNc1ccccc1 [compound 4, AGPP]
Ki: 380 nM
